According to patent US20090221559A1 (priority 2005, published 2009):
Where two headings read alike, the source gives them in different places.

How the values were obtained:
[1] = tested on: HCV replicon RNA replication in Huh-7 luc/neo (Huh-Luc) cells; assay: HCV replicon assay (stable replicon cell reporter assay, luciferase read-out); type: cell-based, HCV type 1b
Method in brief: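 Huh-7 cells stably carry a bicistronic HCV 1b NS3-NS5B subgenomic replicon with firefly luciferase and neo markers. Cells were plated with compound across a concentration range and incubated three days. Replication was measured as luciferase activity to give dose-response curves.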

[2] = biological target: T1, HCV NS5B polymerase (His-tagged, C-terminal 21 amino acid deleted NS5B, HC-J4) (Hepatitis C virus genotype 1b, UniProt O92972); assay: NS5b polymerase assay (biochemical RdRp assay, 3H-GTP incorporation, SPA beads); parameters: species or system HCV genotype 1b
T1 construct: The cDNA encoding NS5B amino acid 1-570 (HC-J4, genotype 1b); His tag (His6, from pET-21b) (C); made in house; host or cells: E. coli BL21 (DE3)
T1 sequence (O92972 2417-3000, looked up, stated change not applied): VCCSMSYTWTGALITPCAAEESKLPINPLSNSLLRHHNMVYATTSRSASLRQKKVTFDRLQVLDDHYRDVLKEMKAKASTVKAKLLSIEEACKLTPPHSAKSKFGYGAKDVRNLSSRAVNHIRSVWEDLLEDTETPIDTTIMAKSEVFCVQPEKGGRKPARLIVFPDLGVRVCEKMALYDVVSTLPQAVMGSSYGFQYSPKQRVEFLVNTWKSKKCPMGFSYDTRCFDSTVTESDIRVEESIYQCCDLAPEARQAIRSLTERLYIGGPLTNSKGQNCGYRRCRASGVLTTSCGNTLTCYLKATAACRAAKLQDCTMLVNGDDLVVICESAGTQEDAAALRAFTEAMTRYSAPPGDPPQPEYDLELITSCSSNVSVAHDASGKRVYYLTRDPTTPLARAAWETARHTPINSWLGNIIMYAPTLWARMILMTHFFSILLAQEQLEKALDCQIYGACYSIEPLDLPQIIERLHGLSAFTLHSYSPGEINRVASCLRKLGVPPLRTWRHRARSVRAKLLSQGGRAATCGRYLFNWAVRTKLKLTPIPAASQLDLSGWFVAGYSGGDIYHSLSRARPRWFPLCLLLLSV
Method in brief: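 His-tagged C-terminal-21-aa-deleted NS5B (genotype 1b, HC-J4) at 200 nM was preincubated 15 min at RT with compound on 5′-biotinylated oligo(rG13)/poly(rC) template/primer before NTPs. Reaction with 600 nM GTP plus 0.1 μCi 3H-GTP and 5 mM MgCl2 in Tris pH 7.5 ran 2 h at 25 °C. Stopped with EDTA/SPA beads for incorporation counting.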

[3] = Hepatitis C virus, Huh-7, 72 h, read-out: Replicon Assay EC50, Huh-Luc cells, three days incubation, luciferase activity
[4] = NS5B Polymerase Assay IC50, 200 nM enzyme, 3H-GTP incorporation, 2 h at 25° C.
[5] = Hepatitis C virus, Huh-7, 72 h, read-out: Replicon Assay EC50 (μM), Huh-Luc cells, incubation of three days, luciferase activity
[6] = NS5B Polymerase Assay IC50 (μM)
[7] = Huh-Luc cells, three days incubation, luciferase activity, read-out: Replicon Assay EC50
[8] = 200 nM enzyme, 3H-GTP incorporation, 2 h at 25° C., read-out: NS5B Polymerase Assay IC50

Structure (SMILES)	EC50 [1, 3] [µM]	IC50 [2, 4] [µM]	EC50 [1, 5] [µM]	IC50 [2, 6] [µM]	also measured
COc1ccc(C2C3=C(CC(C)(C)CC3=O)Nc3ccccc3N2C(=O)C(F)(F)F)cc1OC (centres unmarked) [compound 106]	> 32	> 42.7	–	–	–
CCOc1cc(C2Nc3ccccc3NC3=C2C(=O)CC(c2ccc(Cl)cc2)C3)cc(Br)c1O (centres unmarked) [compound 353]	–	–	5.3	> 42.7	–
CCC(C)Oc1ccccc1C1C2=C(CC(C)(C)CC2=O)Nc2ccccc2N1C(=O)C(F)(F)F (centres unmarked) [compound 65]	2.48	> 42.7	–	–	–
COc1ccc(C2C3=C(CC(C)(C)CC3=O)Nc3ccccc3N2C(=O)CC(C)C)c(OC)c1 (centres unmarked) [compound 30]	23	> 42.6	–	–	–
COc1c(Cl)cc(Cl)cc1C1C2=C(CC(C)(C)CC2=O)Nc2ccccc2N1C(C)=O (centres unmarked) [compound 73]	19.9	> 42.7	–	–	–
CC(C)CC(=O)N1c2ccccc2NC2=C(C(=O)CC(C)(C)C2)C1c1c(F)cccc1Cl (centres unmarked) [compound 43]	9.17	> 42.7	–	–	–
O=C1CC(c2ccccc2OCc2ccccc2)CC2=C1C(C(Br)=Cc1ccccc1)Nc1ccccc1N2 (mixture of isomers) [compound 498]	–	–	–	–	EC50 ([1]; Huh-Luc cells, incubation of three days, luciferase activity, read-out: Replicon Assay EC50): 2.92 µM; IC50 ([2]; read-out: NS5B Polymerase Assay IC50): > 133 µM
COc1ccc(C2C3=C(CC(C)(C)CC3=O)Nc3ccccc3N2C(=O)C(F)(F)F)cc1 (centres unmarked) [compound 110]	8.11	> 42.7	–	–	–
O=C1CC(c2ccc(Cl)cc2)CC2=C1C(c1cccc([N+](=O)[O-])c1)N(C(=O)C(F)(F)F)c1ccccc1N2 (mixture of isomers) [compound 202]	–	–	–	–	EC50 [1, 7]: 9.68 µM; IC50 [2, 8]: > 33.3 µM
CCN(CC)c1ccc(C2Nc3ccccc3NC3=C2C(=O)CC(c2ccc(OC)cc2)C3)cc1 (centres unmarked) [compound 363]	–	–	25.8	> 42.7	–
CCC(=O)N1c2ccccc2NC2=C(C(=O)CC(C)(C)C2)C1c1ccc(Cl)cc1 (centres unmarked) [compound 54]	22.3	> 42.7	–	–	–
Cc1cc2c(cc1C)NC(c1c(F)cccc1F)C1=C(CC(C)(C)CC1=O)N2 (centres unmarked) [compound 454]	–	–	3.44	> 42.7	–
CC(=O)N1c2cccc(Br)c2NC2=C(C(=O)CC(C)(C)C2)C1c1ccc(Cl)cc1Cl (centres unmarked) [compound 312]	7.81	6.11	–	–	–
COc1ccc(OC)c(C2C3=C(CC(C)(C)CC3=O)Nc3ccccc3N2C(=O)Cc2ccccc2)c1 (centres unmarked) [compound 22]	10.8	> 42.6	–	–	–
O=C1C[C@@H](c2ccccc2)CC2=C1[C@H](c1coc3ccccc3c1=O)Nc1ccccc1N2 [compound 488]	–	–	17.8	> 42.7	–
CC(C)c1ccc(C2Nc3ccccc3NC3=C2C(=O)CC(c2ccccc2)C3)cc1 (centres unmarked) [compound 367]	–	–	24.6	> 42.7	–
CC(C)C(=O)N1c2ccccc2NC2=C(C(=O)CC(C)(C)C2)C1c1cccs1 (centres unmarked) [compound 243]	25.5	> 33.3	–	–	–
CC(=O)N1c2ccccc2NC2=C(C(=O)CC(C)(C)C2)C1c1ccc(C)o1 (centres unmarked) [compound 283]	> 32	> 42.7	–	–	–
CC(=O)N1c2ccccc2NC2=C(C(=O)CC(C)(C)C2)C1c1ccc(Br)s1 (centres unmarked) [compound 282]	17	> 42.7	–	–	–
CC(=O)N1c2ccccc2NC2=C(C(=O)CC(c3ccccc3OCc3ccccc3)C2)C1c1cccc(OCc2ccccc2)c1 (single isomer, unassigned) [compound 190]	–	–	–	–	EC50 ([1]; read-out: Replicon Assay EC50, Huh-Luc cells, three days incubation, luciferase activity): 1.09 µM; IC50 ([2]; read-out: NS5B Polymerase Assay IC50, 200 nM enzyme, 3H-GTP incorporation, 2 h at 25° C.): > 42.7 µM
CCOc1cc(C2Nc3ccccc3NC3=C2C(=O)CC(c2ccc(OC)c(OC)c2)C3)cc(Br)c1O (centres unmarked) [compound 399]	–	–	19.4	> 42.7	–
CC(=O)N1c2ccccc2NC2=C(C(=O)CC(C)(C)C2)C1c1cccc(Cl)c1 (centres unmarked) [compound 126]	> 32	> 42.7	–	–	–
CC(=O)N1c2ccccc2NC2=C(C(=O)CC(C)(C)C2)C1c1ccc(F)cc1F (centres unmarked) [compound 146, 10-acetyl-11-(2,4-difluorophenyl)-3,3-dimethyl-2,3,4,5,10,11-hexahydro-1H-dibenzo[b,e][1,4]diazepin-1-one]	23.9	2.02	–	–	–
CCCCCC(=O)N1c2ccccc2NC2=C(C(=O)CC(c3ccccc3OCCC)C2)C1c1ccc(OC)cc1 (centres unmarked) [compound 222]	–	–	–	–	EC50 [1, 7]: 7.73 µM; IC50 [2, 8]: > 42.7 µM
CC(C)C(=O)N1c2ccccc2NC2=C(C(=O)CC(C)(C)C2)C1c1cccnc1 (centres unmarked) [compound 259]	> 33	29.5	–	–	–

Structure (SMILES)	EC50 [1, 3] [µM]	IC50 [2, 4] [µM]	EC50 [1, 5] [µM]	IC50 [2, 6] [µM]	also measured
CC1(C)CC(=O)C2=C(C1)Nc1ccccc1N(C(=O)Cc1ccc(Cl)cc1)C2c1cccs1 (centres unmarked) [compound 245]	3.51	> 42.6	–	–	–
O=C1CC(c2ccc(Cl)cc2)CC2=C1C(c1cccc(Cl)c1Cl)Nc1ccccc1N2 (centres unmarked) [compound 346]	–	–	24.6	> 42.7	–
CC1(C)CC(=O)C2=C(C1)Nc1ccccc1N(C(=O)c1ccc(F)cc1)C2c1ccc(Br)cc1 (centres unmarked) [compound 113]	> 32	> 42.7	–	–	–
CC(=O)N1c2ccccc2NC2=C(C(=O)CC(C)(C)C2)[C@H]1c1ccc(OCc2ccccc2)cc1 (single isomer, unassigned) [compound 301]	15.3	1.52	–	–	–
CC1(C)CC(=O)C2=C(C1)Nc1ccccc1NC2c1ccc(Oc2ccccc2Br)cc1 (centres unmarked) [compound 442, 11-[4-(2-bromophenoxy)phenyl]-3,3-dimethyl-2,3,4,5,10,11-hexahydro-1H-dibenzo[b,e][1,4]diazepin-1-one]	–	–	2.71	> 133	–
Cc1ccc(C2CC(=O)C3=C(C2)Nc2ccccc2N(C(=O)CCC(=O)O)C3c2ccc(C)cc2)cc1 (centres unmarked) [compound 161]	> 25	29.9	–	–	–
CC1(C)CC(=O)C2=C(C1)Nc1ccccc1NC2c1cccc(Cl)c1Cl (centres unmarked) [compound 427]	–	–	20.7	> 42.7	–
CCCOc1ccc(C2C3=C(CC(C)(C)CC3=O)Nc3ccccc3N2C(C)=O)cc1OC (centres unmarked) [compound 129]	> 32	> 42.7	–	–	–
COc1ccc(C2C3=C(CC(c4ccc(C)cc4)CC3=O)Nc3ccccc3N2C(=O)c2ccccc2)cc1 (mixture of isomers) [compound 188]	–	–	–	–	EC50 [1, 7]: 5.16 µM; IC50 [2, 8]: > 33.3 µM
COc1ccc(C2C3=C(CC(C)(C)CC3=O)Nc3ccccc3N2C(=O)CC(C)C)cc1 (centres unmarked) [compound 41]	8.44	> 42.7	–	–	–
COc1ccc(C2CC(=O)C3=C(C2)Nc2ccccc2NC3c2cc([N+](=O)[O-])ccc2Cl)cc1 (centres unmarked) [compound 375]	–	–	19.9	> 42.7	–
O=C1C[C@@H](c2ccc3c(c2)OCO3)CC2=C1[C@H](c1cccnc1)Nc1ccccc1N2 [compound 476]	–	–	22.9	> 42.7	–
COc1ccc(C2CC(=O)C3=C(C2)Nc2ccccc2NC3c2ccccc2OC(C)C)cc1OC (centres unmarked) [compound 370]	–	–	3.43	> 42.7	–
CC1(C)CC(=O)C2=C(C1)Nc1ccccc1NC2c1ccc(OCc2ccccc2)cc1OCc1ccccc1 (centres unmarked) [compound 445, 11-[2,4-dibenzyloxyphenyl]-3,3-dimethyl-2,3,4,5,10,11-hexahydro-1H-dibenzo[b,e][1,4]diazepin-1-one]	–	–	1.98	> 133	–
CC1(C)CC(=O)C2=C(C1)Nc1ccccc1NC2c1ccc(OCc2ccccc2)cc1 (centres unmarked) [compound 426]	–	–	7.31	30.8	–
CC(=O)N1c2ccccc2NC2=C(C(=O)CC(C)(C)C2)C1c1ccc(OCc2cccnc2)cc1 (centres unmarked) [compound 140, 10-acetyl-3,3-dimethyl-11-[4-(3-pyridylmethoxy)phenyl]-2,3,4,5,10,11-hexahydro-1H-dibenzo[b,e][1,4]diazepin-1-one]	7.23	19.1	–	–	–
CC1(C)CC(=O)C2=C(C1)Nc1ccccc1N(C(=O)C(F)(F)F)C2c1ccc(-c2ccc(Br)cc2)o1 (centres unmarked) [compound 278]	13.3	> 42.7	–	–	–
COc1ccc(C2CC(=O)C3=C(C2)Nc2ccccc2NC3c2cc(OC)c(OC)cc2OC)cc1OC (centres unmarked) [compound 403]	–	–	7.12	> 42.7	–
CCC(=O)N1c2ccccc2NC2=C(C(=O)CC(C)(C)C2)C1c1c(Cl)cccc1Cl (centres unmarked) [compound 46]	11.1	> 42.7	–	–	–
CCOc1ccc(C2C3=C(CC(C)(C)CC3=O)Nc3ccccc3N2C(=O)C(F)(F)F)cc1 (centres unmarked) [compound 2]	26.5	> 42.7	–	–	–
COc1ccc(C2CC(=O)C3=C(C2)Nc2ccccc2NC3c2ccc(N(C)C)cc2)cc1 (centres unmarked) [compound 328]	–	–	22.7	> 42.7	–
CC1(C)CC(=O)C2=C(C1)Nc1ccccc1N(C(=O)c1ccccc1)C2c1ccccc1F (centres unmarked) [compound 94]	3.4	> 42.7	–	–	–
CC1(C)CC(=O)C2=C(C1)Nc1ccccc1NC2c1ccc(O)cc1 (centres unmarked) [compound 440, 3,3-dimethyl-11-(4-hydroxyphenyl)-2,3,4,5,10,11-hexahydro-1H-dibenzo[b,e][1,4]diazepin-1-one]	–	–	> 100	> 133	–
COc1cc(C2C3=C(CC(C)(C)CC3=O)Nc3ccccc3N2C(C)=O)ccc1OCc1ccccc1 (centres unmarked) [compound 124]	–	–	–	–	EC50 [1, 7]: 28.9 µM; IC50 [2, 8]: 8.56 µM
